Test results: EP0428132A1, “Pradimicin derivatives” (Bristol-Myers Squibb Company, priority 1989, dated 1991)
Values after ≈ are worked out from the molar mass of the structure shown.

Columns and labels:
[1] = tested on: Cryptococcus neoformans IAM4514; experiment: In vitro antifungal activity, serial agar dilution method (Table 1); format: cell-based; conditions: Cryptococcus neoformans, IAM4514; Sabouraud dextrose agar (pH 7.0); 28°C for 40 hours
Method: (§1) The inoculum size was adjusted to 10⁶ cells/ml, and a volume of approximately 0.003 ml of fungal suspension was applied to the surface of the antibiotic containing agar plates with a multiinoculator. After incubation, the lowest concentration of antibiotic causing virtually complete inhibition of fungal growth was determined as the minimum inhibitory concentration (MIC). Table 1. [table]

[2] = tested on: Trichophyton mentagrophytes D155; experiment: as above; format: cell-based; conditions: Trichophyton mentagrophytes, D155; Sabouraud dextrose agar (pH 7.0); 28°C for 40 hours
Method: as §1

[3] = tested on: Trichophyton mentagrophytes #4329; experiment: as above; format: cell-based; conditions: Trichophyton mentagrophytes; Sabouraud dextrose agar (pH 7.0); 28°C for 40 hours
Method: as §1

Candida albicans IAM4888 = experiment: as above; format: cell-based; conditions: Candida albicans, IAM4888; Sabouraud dextrose agar (pH 7.0); 28°C for 40 hours
Method: as §1

[4] = tested on: Fusarium moniliforme A2284; experiment: as above; format: cell-based; conditions: Fusarium verticillioides, A2284; Sabouraud dextrose agar (pH 7.0); 28°C for 40 hours
Method: as §1

[5] = tested on: Cryptococcus neoformans D49; experiment: as above; format: cell-based; conditions: Cryptococcus neoformans, D49, 40 h, pH 7, read-out: MIC, Cryptococcus neoformans D49
Method: as §1

[6] = tested on: Blastomyces dermatidis D40; experiment: as above; format: cell-based; conditions: for MIC: Blastomyces, D40, 40 h, pH 7, read-out: MIC, Blastomyces dermatidis D40
Method: as §1

[7] = tested on: Aspergillus fumigatus IAM2034; experiment: as above; format: cell-based; conditions: Sabouraud dextrose agar (pH 7.0), 28°C for 40 hours; for MIC: Aspergillus fumigatus, IAM2034
Method: as §1

Mucor spinosus IFO5317 = experiment: as above; format: cell-based; conditions: Sabouraud dextrose agar (pH 7.0), 28°C for 40 hours; for MIC: Mucor spinosus, IFO5317; for Partial Inhibition, Mucor spinosus IFO5317: value in parentheses = Partial Inhibition
Method: as §1

[8] = tested on: Sprotricosis schenckii IFO8158; experiment: as above; format: cell-based; conditions: for MIC: 40 h, pH 7, read-out: MIC, Sprotricosis schenckii IFO8158
Method: as §1

[9] = tested on: Aspergillus fumigatus IAM2530; experiment: as above; format: cell-based; conditions: Aspergillus fumigatus, IAM2530; Sabouraud dextrose agar (pH 7.0); 28°C for 40 hours
Method: as §1

[10] = tested on: Petriellidium boydii IFO8078; experiment: as above; format: cell-based; conditions: Scedosporium boydii, IFO8078; Sabouraud dextrose agar (pH 7.0); 28°C for 40 hours
Method: as §1

Candida albicans A9540 [11] = experiment: as above; format: cell-based; conditions: Candida albicans, A9540; Sabouraud dextrose agar (pH 7.0); 28°C for 40 hours
Method: as §1

Candida albicans A9540 [12] = experiment: Intravenous Candida albicans infection mouse model, Table 2 part A; format: in vivo; conditions: drug administered once just after infection, 20 days after fungal challenge, method of Litchfield and Wilcoxon, male ICR mice
Method: Several compounds were also evaluated in an intravenous Candida albicans […] infection mouse model. The test organism was suspended in saline approximately 10 times the median lethal dose of the fungus (10⁶ cells/mouse) were used to infect intravenously male ICR mice weighing 20 to 24 g. Groups of five mice at each dose level were given the test compounds intravenously or intramuscularly. The 50% protective dose (PD₅₀) was calculated from survival rates recorded 20 or 21 days after the fungal challenge. Control animals died between 7 to 15 days.

FA21436 = experiment: In vitro antifungal activity, serial agar dilution method (Table 1); format: cell-based, Asoergukkys flavus; conditions: for MIC: 40 h, pH 7, read-out: MIC, Asoergukkys flavus FA21436
Method: as §1

[13] = Water solubility, protocol I (PBS, HPLC); format: physicochemical; conditions: Method I: PBS without CaCl₂ and MgCl₂.6H₂O
Method: The supernatant (2 µL) was analyzed by HPLC using the conditions specified for each compound in the Experimental Section. […] When not soluble, an additional amount of PBS (x µL) was added, sonicated, and centrifuged. When visibly soluble, the solution (2 µL) was injected to HPLC and the peak area was used for the known concentration of the sample.

[14] = tested on: Microsporum canis WW10218; experiment: In vitro antifungal activity, serial agar dilution method (Table 1a); format: cell-based; conditions: WW10218, pH 7, read-out: MICs, Microsporum canis WW10218
Method: (§2) The inoculum size was adjusted to 10⁶ cells/ml, and a volume of approximately 0.003 ml of fungal suspension was applied to the surface of the antibiotic containing agar plates with a multiinoculator. After incubation, the lowest concentration of antibiotic causing virtually complete inhibition of fungal growth was determined as the minimum inhibitory concentration (MIC).

[15] = tested on: Candida tropicalis A25809; experiment: as above; format: cell-based; conditions: YM agar (pH 7.0, Difco), 30°C for 2 days (yeast) or 4 days (filamentous fungi), read-out: MICs, Candida tropicalis A25809
Method: as §2

[16] = tested on: Cryptococcus neoformans A15053; experiment: as above; format: cell-based; conditions: A15053, YM agar (pH 7.0, Difco), 30°C for 2 days (yeast) or 4 days (filamentous fungi), read-out: MICs, Cryptococcus neoformans A15053
Method: as §2

[17] = tested on: Candida paratropicalis A25825; experiment: as above; format: cell-based; conditions: YM agar (pH 7.0, Difco); 30°C for 2 days (yeast) or 4 days (filamentous fungi); read-out: MICs, Candida paratropicalis A25825
Method: as §2

[18] = tested on: Saccharomyces cerevisiae A25803; experiment: as above; format: cell-based; conditions: YM agar (pH 7.0, Difco), 30°C for 2 days (yeast) or 4 days (filamentous fungi), read-out: MICs, Saccharomyces cerevisiae A25803
Method: as §2

[19] = tested on: Trichophyton rubrum A26761; experiment: as above; format: cell-based; conditions: A26761, pH 7, read-out: MICs, Trichophyton rubrum A26761
Method: as §2

[20] = tested on: Candida pseudotropicalis A25802; experiment: as above; format: cell-based; conditions: Kluyveromyces marxianus, YM agar (pH 7.0, Difco), 30°C for 2 days (yeast) or 4 days (filamentous fungi), read-out: MICs, Candida pseudotropicalis A25802
Method: as §2

[21] = tested on: Trichophyton mentagrophytes A26771; experiment: as above; format: cell-based; conditions: A26771, YM agar (pH 7.0, Difco), 30°C for 2 days (yeast) or 4 days (filamentous fungi), read-out: MICs, Trichophyton mentagrophytes A26771
Method: as §2

[22] = tested on: Microsporum gypseum WW1107; experiment: as above; format: cell-based; conditions: Nannizzia gypsea, YM agar (pH 7.0, Difco), 30°C for 2 days (yeast) or 4 days (filamentous fungi), read-out: MICs, Microsporum gypseum WW1107
Method: as §2

[23] = tested on: Candida tropicalis A25812; experiment: as above; format: cell-based; conditions: A25812, YM agar (pH 7.0, Difco), 30°C for 2 days (yeast) or 4 days (filamentous fungi), read-out: MICs, Candida tropicalis A25812
Method: as §2

Candida albicans A25578 = experiment: as above; format: cell-based; conditions: A25578, YM agar (pH 7.0, Difco), 30°C for 2 days (yeast) or 4 days (filamentous fungi), read-out: MICs, Candida albicans A25578
Method: as §2

Candida albicans A9540 [24] = experiment: as above; format: cell-based; conditions: A9540, YM agar (pH 7.0, Difco), 30°C for 2 days (yeast) or 4 days (filamentous fungi), read-out: MICs, Candida albicans A9540
Method: as §2

[25] = value in parentheses = Partial Inhibition, Sabouraud dextrose agar (pH 7.0), 28°C for 40 hours

Method for physchem: The sample (3 ∼ 3.5 mg) was suspended in 1 ml of PBS(-) or PBS(+), sonicated at 30°C for 10 minutes, and allowed to stand at room temperature for 2 hours. The resulting solution or suspension was centrifuged at 12,000 rpm for 10 minutes. The supernatant (pH 6.7 ∼ 7.2) was diluted (5 x or 50 x) with 0.01N NaOH (pH ca. 11.5) and its UV absorption at 500 nm was measured. The solubility was assessed by the absorption coefficient value with reference to the standard. […] The zwitterionic form sample was used for the solubility test as it is. The hydrochloride salt sample (3 mg) was dissolved in 3 ml of distilled water and neutralized with 0.01N NaOH, and then the solution was lyophilized to give a test sample.
Dulbecco's phosphate buffered saline (PBS) solution was used. Preparation of PBS(-) solution: One PBS(-) tablet (Flow Laboratories, Cat. No. 28-103-05) was dissolved in 100 ml distilled water, and the solution was autoclaved for 10 minutes at 115°C. This solution contains 0.2 g/L of KCl, 0.2 g/L of KH₂PO₄, 8 g/L of NaCl, and 1.15 g/L of Na₂HPO₄. Preparation of PBS(+) solution: One PBS(-) tablet was dissolved in 80 ml distilled water; 10 mg of CaCl₂ was dissolved in 10 ml distilled water; 10 mg of MgCl₂, 6H₂O was dissolved in 10 ml distilled water. These solutions were separately autoclaved, as described above, and mixed when cooled.

Row | Compound | MIC [1] [µg/mL] | MIC [2] [µg/mL] | MIC [3] [µg/mL] | MIC (Candida albicans IAM4888) [µg/mL] | MIC [4] [µg/mL] | MIC [5] [µg/mL] | MIC [6] [µg/mL] | MIC [7] [µg/mL] | MIC (Mucor spinosus IFO5317) [µg/mL] | Partial Inhibition, Mucor spinosus IFO5317 (Mucor spinosus IFO5317) | MIC [8] [µg/mL] | MIC [9] [µg/mL] | MIC (Candida albicans A9540 [11]) [µg/mL] | PD₅₀ (Candida albicans A9540 [12]) [mg/kg] | MIC (FA21436) [µg/mL] | solubility at 2 h (physchem; Method II (+): PBS(+)) [µg/mL] | solubility [13] [µg/mL] | MIC [14] [µg/mL] | MIC [15] [µg/mL] | MIC [16] [µg/mL] | further results
1 | COc1cc(O)c2c(c1)C(=O)c1c(cc3c(c1O)-c1c(cc(C)c(C(=O)N[C@H](C)C(=O)O)c1O)[C@H](O[C@@H]1O[C@H](C)[C@H](N(C)CC(N)=O)[C@H](O[C@@H]4OC[C@@H](O)[C@H](O)[C@H]4O)[C@H]1O)[C@H]3O)C2=O [Ex. 2, N-(carbamoylmethyl) pradimicin A] | 3.1 (≈ 3.45 µM) | > 100 | > 100 | 25 (≈ 27.8 µM) | > 100 | 12.5 (≈ 13.9 µM) | 25 (≈ 27.8 µM) | > 100 | > 100 | >100.0 (100.0) µg/ml | 25 (≈ 27.8 µM) | 12.5 (≈ 13.9 µM) | 50 (≈ 55.7 µM) | 29 | > 100 |  |  |  |  |  | Partial Inhibition, Blastomyces dermatidis D40 [6, 25]: 12.5 µg/mL; Partial Inhibition, Aspergillus fumigatus IAM2034 ([7]; value in parentheses = Partial Inhibition): 50.0 µg/mL; Partial Inhibition, Sprotricosis schenckii IFO8158 [8, 25]: 12.5 µg/mL; MIC [10]: > 100 µg/mL; Partial Inhibition, Asoergukkys flavus FA21436 (FA21436; [25]): 50.0 µg/mL; solubility at 2 h (physchem; Method II (-): PBS(-)): 11000 µg/mL (≈ 12300 µM)
2 | COc1cc(O)c2c(c1)C(=O)c1c(cc3c(c1O)-c1c(cc(C)c(C(=O)N[C@H](C)C(=O)O)c1O)[C@H](O[C@@H]1O[C@H](C)[C@H](N(C)C(=O)CN)[C@H](O[C@@H]4OC[C@@H](O)[C@H](O)[C@H]4O)[C@H]1O)[C@H]3O)C2=O [Ex. 10, N-glycyl pradimicin A] | 1.6 (≈ 1.78 µM) | 12.5 (≈ 13.9 µM) | 12.5 (≈ 13.9 µM) | 6.3 (≈ 7.02 µM) | > 100 | 1.6 (≈ 1.78 µM) | 12.5 (≈ 13.9 µM) | 100 (≈ 111 µM) | > 100 |  | 12.5 (≈ 13.9 µM) | 12.5 (≈ 13.9 µM) | 12.5 (≈ 13.9 µM) | 30 | > 100 | 1000 (≈ 1110 µM) |  |  |  |  | 
3 | COc1cc(O)c2c(c1)C(=O)c1c(cc3c(c1O)-c1c(cc(C)c(C(=O)N[C@H](C)C(=O)O)c1O)[C@H](O[C@@H]1O[C@H](C)[C@H](N(C)C(=O)CN(C)C)[C@H](O)[C@H]1O)[C@H]3O)C2=O [Ex. 15, N-(N,N-dimethylglycyl) pradimicin B] |  |  |  |  |  |  |  |  |  |  |  |  |  |  |  |  | 2000 (≈ 2520 µM) | 6.4 (≈ 8.06 µM) | 3.2 (≈ 4.03 µM) | 3.2 (≈ 4.03 µM) | MIC [17]: 6.3 µg/mL (≈ 7.94 µM); MIC [18]: 3.2 µg/mL (≈ 4.03 µM); MIC [19]: 2.5 µg/mL (≈ 3.15 µM); MIC [20]: 1.6 µg/mL (≈ 2.02 µM); MIC [21]: 12.5 µg/mL (≈ 15.7 µM); MIC [22]: 12.5 µg/mL (≈ 15.7 µM); MIC [23]: 6.3 µg/mL (≈ 7.94 µM); MIC (Candida albicans A25578): 3.2 µg/mL (≈ 4.03 µM); MIC (Candida albicans A9540 [24]): 6.3 µg/mL (≈ 7.94 µM)
4 | CCOC(=O)CN(C)[C@@H]1[C@H](O)[C@@H](O)[C@H](O[C@H]2c3cc(C)c(C(=O)N[C@H](C)C(=O)O)c(O)c3-c3c(cc4c(c3O)C(=O)c3cc(OC)cc(O)c3C4=O)[C@@H]2O)O[C@@H]1C [Ex. 6, N-(ethoxycarbonylmethyl) pradimicin B] |  |  |  |  |  |  |  |  |  |  |  |  |  |  |  |  | > 4000 | 1.6 (≈ 2.01 µM) | 1.6 (≈ 2.01 µM) | 1.6 (≈ 2.01 µM) | MIC [17]: 6.3 µg/mL (≈ 7.93 µM); MIC [18]: 0.8 µg/mL (≈ 1.01 µM); MIC [19]: 6.3 µg/mL (≈ 7.93 µM); MIC [20]: 1.6 µg/mL (≈ 2.01 µM); MIC [21]: 6.3 µg/mL (≈ 7.93 µM); MIC [22]: 12.5 µg/mL (≈ 15.7 µM); MIC [23]: 3.2 µg/mL (≈ 4.03 µM); MIC (Candida albicans A25578): 3.2 µg/mL (≈ 4.03 µM); MIC (Candida albicans A9540 [24]): 6.3 µg/mL (≈ 7.93 µM)
5 | COc1cc(O)c2c(c1)C(=O)c1c(cc3c(c1O)-c1c(cc(C)c(C(=O)N[C@H](C)C(=O)O)c1O)[C@H](O[C@@H]1O[C@H](C)[C@H](N(C)C=O)[C@H](O[C@@H]4OC[C@@H](O)[C@H](O)[C@H]4O)[C@H]1O)[C@H]3O)C2=O [Ex. 9, N-formyl pradimicin A] | 12.5 (≈ 14.4 µM) | 25 (≈ 28.8 µM) | 25 (≈ 28.8 µM) | 25 (≈ 28.8 µM) | > 100 | 25 (≈ 28.8 µM) | 100 (≈ 115 µM) | 50 (≈ 57.6 µM) | > 100 | 50.0 µg/mL | 50 (≈ 57.6 µM) | 50 (≈ 57.6 µM) | 25 (≈ 28.8 µM) | >50 | > 100 | > 32000 |  |  |  |  | 
